Measurements: the Deep4Chem optical property database
Where “and” joins values, the source holds several entries; their conditions need not be identical. Identical values can stand only once.

Assay: photoluminescence quantum yield (fraction); solvent given as SMILES
[1] = in O=P(c1ccccc1)(c1ccccc1)c1ccccc1Oc1ccccc1P(=O)(c1ccccc1)c1ccccc1

SMILES: COC(=O)C(NC(=O)OC(C)(C)C)c1ccc2oc(-c3cc(OC)c(OC)cc3OC)nc2c1 (stereo not drawn)
- photoluminescence quantum yield (in CC1CCCCC1): 0.58
- photoluminescence quantum yield (in CC#N): 0.79
- photoluminescence quantum yield (in CO): 0.81

SMILES: F[B-]1(F)n2c(nc(-c3ccccc3)c2-c2ccccc2)-c2cccc[n+]21
- photoluminescence quantum yield (in C1CCCCC1): 0.34
- photoluminescence quantum yield (in C1CCOC1): 0.17
- photoluminescence quantum yield (in C1COCCO1): 0.26
- photoluminescence quantum yield (in CC#N): 0.1 and 0.19
- photoluminescence quantum yield (in CCCCCC): 0.22 and 0.3
- photoluminescence quantum yield (in CO): 0.12 and 0.1
- photoluminescence quantum yield (in ClC(Cl)Cl): 0.23 and 0.3
- photoluminescence quantum yield (in ClCCl): 0.15

SMILES: c1cc2ccc3ccc4cc3c2cc1c1ccc2ccc3ccc(cc3c2c1)c1ccc2ccc3ccc4cc3c2c1
- photoluminescence quantum yield (in Cc1ccccc1): 0.75

SMILES: C(=C\c1ncc2ccccc2n1)/c1ccc(N(c2ccccc2)c2ccccc2)cc1
- photoluminescence quantum yield (in ClCCl): 0.61

SMILES: COC(=O)c1ccc(/C=C2\N=C(c3ccc(OC)c(OC)c3)OC2=O)cc1
- photoluminescence quantum yield (in C1COCCO1): 0.348

SMILES: Nc1cccc2cccc(N)c12
- photoluminescence quantum yield (in CC#N): 0.1
- photoluminescence quantum yield (in CO): 0.09
- photoluminescence quantum yield (in CS(C)=O): 0.3
- photoluminescence quantum yield (in Cc1ccccc1): 0.13

SMILES: c1ccc2c(c1)c1ccccc1n2-c1ccc(-c2ccc(-n3c4ccccc4c4ccccc43)nc2-n2c3ccccc3c3ccccc32)nn1
- photoluminescence quantum yield (in Cc1ccccc1): 0.35

SMILES: O=Cc1ccc2nc(C#Cc3ccc(N(c4ccccc4)c4ccccc4)cc3)sc2c1
- photoluminescence quantum yield (in Cc1ccccc1): 1

SMILES: c1ccc(-c2cc(-c3ccc4ccc5c(-c6ccnc(-c7ccccn7)c6)ccc6ccc3c4c65)ccn2)nc1
- photoluminescence quantum yield (in C1CCOC1): 0.65
- photoluminescence quantum yield (in CC#N): 0.56
- photoluminescence quantum yield (in CCC#N): 0.56
- photoluminescence quantum yield (in CCCC#N): 0.58
- photoluminescence quantum yield (in CCCCCC): 0.6
- photoluminescence quantum yield (in CCCO): 0.38
- photoluminescence quantum yield (in CCO): 0.39
- photoluminescence quantum yield (in CO): 0.27
- photoluminescence quantum yield (in Cc1ccccc1): 0.56

SMILES: CC(C)c1cc(C(C)C)c(B2c3ccccc3Oc3cc(-n4c5ccccc5c5ccc6c(c7ccccc7n6-c6ccccc6)c54)ccc32)c(C(C)C)c1
- photoluminescence quantum yield (in CC(C)c1cc(C(C)C)c(-c2ccc(-n3c4ccccc4n4c5ccccc5nc34)nc2)c(C(C)C)c1): 0.506
- photoluminescence quantum yield [1]: 0.631

SMILES: O=Cc1ccc(Oc2ccc3c4c(cccc24)C(=O)N(CCO)C3=O)cc1
- photoluminescence quantum yield (in ClC(Cl)Cl): 0.19

SMILES: Cc1cccc2[n+]1[B-](F)(F)n1c(c3cccc4cccc1c43)=N2
- photoluminescence quantum yield (in C1CCOC1): 0.99
- photoluminescence quantum yield (in CC#N): 0.99
- photoluminescence quantum yield (in CCCCCC): 0.99
- photoluminescence quantum yield (in Cc1ccccc1): 0.99
- photoluminescence quantum yield (in ClCCl): 0.99

SMILES: F[B-]1(F)n2c(NCc3ccccc3)ccc2C(c2c(Cl)cccc2Cl)=C2C=CC(NCc3ccccc3)=[N+]21
- photoluminescence quantum yield (in CC#N): 0.42
- photoluminescence quantum yield (in CCCCCC): 0.55
- photoluminescence quantum yield (in CCOC(C)=O): 0.44
- photoluminescence quantum yield (in CO): 0.5
- photoluminescence quantum yield (in ClCCl): 0.52

SMILES: c1ccc(-c2nc(-c3ccccc3)nc(-c3ccc(-c4ccc(N5c6ccccc6[Si](c6ccccc6)(c6ccccc6)c6ccccc65)cc4)cc3)n2)cc1
- photoluminescence quantum yield (in c1cc(-n2c3ccccc3c3ccccc32)cc(-n2c3ccccc3c3ccccc32)c1): 0.38

SMILES: CNc1cccc2c1-c1ccccc1C2=O
- photoluminescence quantum yield (in C1CCCCC1): 0.094
- photoluminescence quantum yield (in CC#N): 0.0051
- photoluminescence quantum yield (in CCO): 0.00014
- photoluminescence quantum yield (in c1ccccc1): 0.063

SMILES: c1ccc(-c2nc(-c3ccccc3)nc(-c3ccc(-n4c5ccccc5c5c6oc7ccccc7c6ccc54)cc3)n2)cc1
- photoluminescence quantum yield [1]: 0.853

SMILES: COc1cc(-c2cnc(-c3ccncc3)o2)cc(OC)c1OC
- photoluminescence quantum yield (in ClCCl): 0.76

SMILES: C(/C=C/c1ccc(-n2c3ccccc3c3ccccc32)cc1)=C\c1ccncc1
- photoluminescence quantum yield (in C1COCCO1): 0.55
- photoluminescence quantum yield (in CC#N): 0.32
- photoluminescence quantum yield (in CCCCCCC): 0.78
- photoluminescence quantum yield (in CO): 0.02

SMILES: c1ccc(-c2nc(-c3c[nH]c4ccccc34)n3ccccc23)cc1
- photoluminescence quantum yield (in ClCCl): 0.162

SMILES: CCN(CC)c1ccc2cc(/C(Cl)=C/C=C/C(=C(C#N)C#N)c3ccc4c(c3)c3ccccc3n4CC)c(=O)oc2c1
- photoluminescence quantum yield (in CC(C)=O): 0.019
- photoluminescence quantum yield (in CCOC(C)=O): 0.052
- photoluminescence quantum yield (in CN(C)C=O): 0.042
- photoluminescence quantum yield (in CS(C)=O): 0.018
- photoluminescence quantum yield (in Cc1ccccc1): 0.091
- photoluminescence quantum yield (in ClCCl): 0.096

SMILES: C1=Cc2ccccc2C(=Cc2ccc(-c3ccc(C=C4c5ccccc5C=Cc5ccccc54)cc3)cc2)c2ccccc21
- photoluminescence quantum yield (in C1CCOC1): 0.00012

SMILES: O=P1(c2ccccc2)C(c2ccc(N(c3ccccc3)c3ccccc3)cc2)=Cc2cc3ccccc3cc21 (stereo not drawn)
- photoluminescence quantum yield (in ClCCl): 0.85

SMILES: CCOC(=O)CSc1nc2c(c(C#N)c1C#N)CCCC2
- photoluminescence quantum yield (in c1ccccc1): 0.04
